Our source for the Ki, IC50 and Kd values is ChEMBL document CHEMBL5723035, “Affinity Biochemical Literature for EUbOPEN Chemogenomic Library” (2024).

Structures are written as SMILES. Non-standard residues stand in square brackets, D forms with d. Residues, ends and D or L forms follow the SMILES beside them. *: point of attachment. Tyr(3-Cl) = N[C@@H](Cc1ccc(O)c(Cl)c1)C(=O)O; Benzoyl(3,5-Cl2) = O=C(c1cc(Cl)cc(Cl)c1)*; Lys(Et2) = CCN(CC)CCCC[C@H](N)C(=O)O; Gly(cPent) = N[C@H](C(=O)O)C1CCCC1; Cbz = O=C(OCc1ccccc1)*; NH(propargyl) = C#CCN*; CH2F = FC* A value given as a limit tells only on which side of the number the result lay.

One test addresses Cathepsin S (Homo sapiens, UniProt P25774). Put plainly: Affinity Biochemical interaction: (inhibition of enzyme activity in cleaving fluorogenic substrate) EUB0002791a CTSS. Set-up: mode of action Inhibitor, recommended concentration 1 uM. The test is classed as functional.
The target in test [1] is Histone-lysine N-methyltransferase 2A (Homo sapiens, UniProt Q03164). The test is described as follows: Affinity Biochemical interaction: (H3K4 HMT inhibition assay to measure the effect on MLL1-mediated HMT activity) EUB0002769a MLL. Set-up: mode of action Inhibitor, recommended concentration 1 uM. The test is classed as functional.
Test [2] concerns the target WD repeat-containing protein 5 (Homo sapiens, UniProt P61964). The test is described as follows: Affinity Biochemical interaction: (Time-resolved fluorescence energy transfer (TR-FRET) assay to determine the competitive binding affinity (Ki) against the MLL1-derived FITC-peptide probe) EUB0002769a WDR5. Format: functional. Also noted: mode of action Inhibitor, recommended concentration 1 uM.

Test [3] addresses 3',5'-cyclic-AMP phosphodiesterase 4B (Homo sapiens, UniProt Q07343). Put plainly: Affinity Biochemical interaction: (Inhibition of enzyme activity, scintillation proximity assay with radiolabelled [3H]cAMP) EUB0002694a PDE4B. Also noted: mode of action Inhibitor, recommended concentration 1 uM. Format: functional.
For the next test, the target named is Menin (Homo sapiens, UniProt O00255). The test is described as follows: Affinity Biochemical interaction: (Enzymatic assay) EUB0002767a MEN1. The test is classed as functional. Also noted: mode of action Inhibitor, recommended concentration 1 uM.
The target in test [4] is cGMP-specific 3',5'-cyclic phosphodiesterase (Homo sapiens, UniProt O76074). Put plainly: Affinity Biochemical interaction: (inhibition of enzyme activity in cleaving radiolabelled substrate [3H]cGMP) EUB0002742aCl PDE5A. Also noted: mode of action Inhibitor, recommended concentration 1 uM. Format: functional.
The target of test [5] is Ubiquitin carboxyl-terminal hydrolase 30 (Homo sapiens, UniProt Q70CQ3).
The target in test [6] is Ubiquitin carboxyl-terminal hydrolase 1 (Homo sapiens, UniProt O94782). The test is described as follows: Affinity Biochemical interaction: (Ubiquitin-rhodamine 110 Assay for USP1 activity) EUB0002793a USP1. Format: functional. Set-up: mode of action Inhibitor, recommended concentration 1 uM.
Test [7] addresses T1, Chromobox protein homolog 2 (Homo sapiens, UniProt Q14781). Put plainly: Affinity Biochemical interaction: (Fluorescence polarisation (fluorescein conjugated)) EUB0002728a CBX2. Format: functional. Set-up: mode of action Inhibitor, recommended concentration 1 uM. (Polarisation of emitted light reports the rotation of a fluorescent probe.)
In test [8] the target is T1, Chromobox protein homolog 2. The test is described as follows: Affinity Biochemical interaction: (thermal shift assay (non-derivatised)) EUB0002728a CBX2. Also noted: mode of action Inhibitor, recommended concentration 1 uM.
Another test has as its target Dipeptidyl peptidase 1 (Homo sapiens, UniProt P53634). Put plainly: Affinity Biochemical interaction: (No data available) EUB0002789aCl CTSC. Set-up: mode of action Inhibitor, recommended concentration 1 uM.
Test [9] deals with sn-1-specific diacylglycerol lipase ABHD11 (Homo sapiens, UniProt Q8NFV4). The test is described as follows: Affinity Biochemical interaction: (fluorescence-based biochemical gel-based Activity-Based Protein Profiling (ABPP)) EUB0002643a ABHD11. The test is classed as functional. Also noted: mode of action Inhibitor, recommended concentration 1 uM.
Test [10] concerns the target Ubiquitin carboxyl-terminal hydrolase 7 (Homo sapiens, UniProt Q93009). The test is described as follows: Affinity Biochemical interaction: (inhibition of enzyme activity in cleaving fluorogenic ubiquitin-rhodamine substrate) EUB0002755a USP7. The test is classed as functional. Also noted: mode of action Inhibitor, recommended concentration 1 uM.
Test [11] deals with Bromodomain-containing protein 4 (Homo sapiens, UniProt O60885). The test is described as follows: Affinity Biochemical interaction: (TR-FRET) EUB0002661a BRD4. Also noted: mode of action Inhibitor, recommended concentration 1 uM. The test is classed as functional.
Test [12] addresses cAMP and cAMP-inhibited cGMP 3',5'-cyclic phosphodiesterase 10A (Homo sapiens, UniProt Q9Y233). The test is described as follows: Affinity Biochemical interaction: (inhibition of enzyme activity in cleaving radiolabelled substrate [3H]cAMP) EUB0002682aCl PDE10A. Format: functional. Set-up: mode of action Inhibitor, recommended concentration 1 uM.
For another test, the target named is Caspase-2 (Homo sapiens, UniProt P42575). Put plainly: Affinity Biochemical interaction: (enzymatic assay (cleavage of fluorogenic substrate)) EUB0002782a CASP2. The test is classed as functional. Set-up: mode of action Inhibitor, recommended concentration 1 uM.
The target in test [13] is Poly [ADP-ribose] polymerase 2 (Homo sapiens, UniProt Q9UGN5). Put plainly: Affinity Biochemical interaction: (inhibition of enzyme activity) EUB0002763a PARP2. Also noted: mode of action Inhibitor, recommended concentration 1 uM. Format: functional.
Test [14] has as its target Poly [ADP-ribose] polymerase 1 (Homo sapiens, UniProt P09874). The test is described as follows: Affinity Biochemical interaction: (inhibition of enzyme activity) EUB0002763a PARP1. The test is classed as functional. Set-up: mode of action Inhibitor, recommended concentration 1 uM.
Test [15] deals with NAD-dependent protein deacetylase sirtuin-7 (Homo sapiens, UniProt Q9NRC8). The test is described as follows: Affinity Biochemical interaction: (inhibition of deacetylase activity, luminescence measurement using the SIRT7 assay kit) EUB0002717a SIRT7. Format: functional. Also noted: mode of action Inhibitor, recommended concentration 1 uM.
Test [16] has as its target Histone acetyltransferase p300 (Homo sapiens, UniProt Q09472). The test is described as follows: Affinity Biochemical interaction: (inhibition of acetyl-transferase reaction) EUB0002628aAD EP300. Also noted: mode of action Inhibitor, recommended concentration 1 uM. Format: functional.
For test [17], the target named is Calpain-2 catalytic subunit (Homo sapiens, UniProt P17655). Put plainly: Affinity Biochemical interaction: (inhibition of casein degradation, monitored by measuring generation of trichloroacetic acid-soluble peptides) EUB0002786aAD CAPN2. Format: functional. Set-up: mode of action Inhibitor, recommended concentration 1 uM.
The target in test [18] is T2, Calpain-1 catalytic subunit (Homo sapiens, UniProt P07384). The test is described as follows: Affinity Biochemical interaction: (inhibition of casein degradation, monitored by measuring generation of trichloroacetic acid-soluble peptides) EUB0002786aAD CAPN1. The test is classed as functional. Also noted: mode of action Inhibitor, recommended concentration 1 uM.
In test [19] the target is T2, Calpain-1 catalytic subunit. The test is described as follows: Affinity Biochemical interaction: (inhibition of enzyme activity using a fluorogenic substrate) EUB0002786aAD CAPN1. Set-up: mode of action Inhibitor, recommended concentration 1 uM. Format: functional.

T1 sequence (Q14781 whole entry): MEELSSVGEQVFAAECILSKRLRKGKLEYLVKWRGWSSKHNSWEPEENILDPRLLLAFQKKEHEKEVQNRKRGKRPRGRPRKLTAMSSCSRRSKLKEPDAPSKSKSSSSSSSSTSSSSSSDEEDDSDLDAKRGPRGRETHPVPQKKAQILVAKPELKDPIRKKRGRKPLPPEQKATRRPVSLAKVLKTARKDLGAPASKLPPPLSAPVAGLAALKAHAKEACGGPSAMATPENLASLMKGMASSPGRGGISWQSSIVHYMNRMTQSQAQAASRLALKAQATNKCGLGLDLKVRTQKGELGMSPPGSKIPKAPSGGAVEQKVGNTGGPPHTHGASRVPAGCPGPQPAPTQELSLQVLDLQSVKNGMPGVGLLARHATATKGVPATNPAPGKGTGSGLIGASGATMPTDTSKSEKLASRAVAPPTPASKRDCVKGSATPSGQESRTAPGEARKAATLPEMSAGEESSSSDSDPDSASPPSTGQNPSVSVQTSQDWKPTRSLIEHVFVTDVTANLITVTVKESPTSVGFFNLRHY
T2 sequence (P07384 whole entry): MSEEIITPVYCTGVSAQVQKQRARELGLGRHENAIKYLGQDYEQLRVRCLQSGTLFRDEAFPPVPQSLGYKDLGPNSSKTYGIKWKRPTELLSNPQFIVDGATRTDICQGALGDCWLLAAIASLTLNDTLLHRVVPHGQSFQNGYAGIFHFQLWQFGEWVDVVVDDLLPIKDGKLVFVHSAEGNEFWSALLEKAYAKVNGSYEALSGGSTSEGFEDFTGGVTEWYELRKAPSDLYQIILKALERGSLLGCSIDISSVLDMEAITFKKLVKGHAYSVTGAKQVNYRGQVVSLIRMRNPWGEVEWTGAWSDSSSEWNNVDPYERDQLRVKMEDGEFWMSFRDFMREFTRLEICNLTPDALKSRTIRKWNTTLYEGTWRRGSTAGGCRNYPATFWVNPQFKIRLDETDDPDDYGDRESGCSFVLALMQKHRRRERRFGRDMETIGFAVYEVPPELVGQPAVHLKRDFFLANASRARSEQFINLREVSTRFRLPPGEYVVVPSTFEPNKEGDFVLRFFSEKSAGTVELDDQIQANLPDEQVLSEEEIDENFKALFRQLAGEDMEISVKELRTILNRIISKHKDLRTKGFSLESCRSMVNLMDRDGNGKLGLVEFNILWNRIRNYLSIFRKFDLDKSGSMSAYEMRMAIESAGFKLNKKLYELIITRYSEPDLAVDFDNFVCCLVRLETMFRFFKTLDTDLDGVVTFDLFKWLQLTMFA
Chain of sn-1-specific diacylglycerol lipase ABHD11 (Q8NFV4 whole entry): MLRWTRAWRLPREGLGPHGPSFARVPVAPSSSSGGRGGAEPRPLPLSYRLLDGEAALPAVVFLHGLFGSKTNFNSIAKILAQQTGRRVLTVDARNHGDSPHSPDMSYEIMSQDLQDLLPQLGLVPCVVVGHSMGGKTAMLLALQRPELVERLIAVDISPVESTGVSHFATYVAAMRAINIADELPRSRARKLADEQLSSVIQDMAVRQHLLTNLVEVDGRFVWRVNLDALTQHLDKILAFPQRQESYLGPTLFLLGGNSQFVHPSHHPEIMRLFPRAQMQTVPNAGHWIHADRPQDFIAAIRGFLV
Chain of cAMP and cAMP-inhibited cGMP 3',5'-cyclic phosphodiesterase 10A (Q9Y233 whole entry): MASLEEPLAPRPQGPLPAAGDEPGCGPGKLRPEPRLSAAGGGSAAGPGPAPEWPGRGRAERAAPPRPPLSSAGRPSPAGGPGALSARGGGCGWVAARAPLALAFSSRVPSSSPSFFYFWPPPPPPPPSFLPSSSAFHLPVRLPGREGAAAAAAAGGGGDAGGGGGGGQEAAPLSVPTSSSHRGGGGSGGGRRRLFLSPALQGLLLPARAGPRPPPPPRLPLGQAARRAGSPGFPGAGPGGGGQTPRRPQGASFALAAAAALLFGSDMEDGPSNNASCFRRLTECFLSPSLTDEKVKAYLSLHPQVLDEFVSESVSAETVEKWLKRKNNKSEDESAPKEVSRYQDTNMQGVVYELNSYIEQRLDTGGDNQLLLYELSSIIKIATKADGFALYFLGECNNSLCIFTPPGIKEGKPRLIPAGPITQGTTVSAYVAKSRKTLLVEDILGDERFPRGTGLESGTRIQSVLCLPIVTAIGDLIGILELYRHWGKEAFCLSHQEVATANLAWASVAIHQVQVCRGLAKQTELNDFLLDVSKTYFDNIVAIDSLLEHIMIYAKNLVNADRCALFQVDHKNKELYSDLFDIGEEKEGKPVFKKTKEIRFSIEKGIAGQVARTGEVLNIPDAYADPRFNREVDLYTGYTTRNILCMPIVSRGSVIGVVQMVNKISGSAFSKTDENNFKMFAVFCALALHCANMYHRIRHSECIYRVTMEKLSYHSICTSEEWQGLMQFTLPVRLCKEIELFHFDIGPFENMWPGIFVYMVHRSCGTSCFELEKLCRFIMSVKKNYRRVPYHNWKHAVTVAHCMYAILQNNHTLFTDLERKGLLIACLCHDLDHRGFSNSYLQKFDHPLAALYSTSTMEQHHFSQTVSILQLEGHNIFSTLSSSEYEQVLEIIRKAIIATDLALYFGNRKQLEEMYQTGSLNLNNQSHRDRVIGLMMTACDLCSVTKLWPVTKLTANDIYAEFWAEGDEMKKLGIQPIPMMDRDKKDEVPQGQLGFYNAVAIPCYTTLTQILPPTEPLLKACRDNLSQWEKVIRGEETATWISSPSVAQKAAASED
Chain of Dipeptidyl peptidase 1 (P53634 25-134 limits assumed): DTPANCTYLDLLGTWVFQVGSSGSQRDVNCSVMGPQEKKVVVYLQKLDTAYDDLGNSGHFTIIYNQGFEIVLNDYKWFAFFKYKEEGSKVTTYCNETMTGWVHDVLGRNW
Chain of Dipeptidyl peptidase 1 (P53634 231-394 limits assumed): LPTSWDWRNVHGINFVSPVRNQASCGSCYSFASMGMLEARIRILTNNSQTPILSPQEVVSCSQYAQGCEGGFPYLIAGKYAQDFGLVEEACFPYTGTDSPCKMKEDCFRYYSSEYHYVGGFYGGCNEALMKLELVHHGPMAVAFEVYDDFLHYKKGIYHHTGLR
Chain of Dipeptidyl peptidase 1 (P53634 395-463 limits assumed): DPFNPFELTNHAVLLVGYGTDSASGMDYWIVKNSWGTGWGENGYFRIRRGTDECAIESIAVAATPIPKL
Chain of Poly [ADP-ribose] polymerase 1 (P09874 whole entry): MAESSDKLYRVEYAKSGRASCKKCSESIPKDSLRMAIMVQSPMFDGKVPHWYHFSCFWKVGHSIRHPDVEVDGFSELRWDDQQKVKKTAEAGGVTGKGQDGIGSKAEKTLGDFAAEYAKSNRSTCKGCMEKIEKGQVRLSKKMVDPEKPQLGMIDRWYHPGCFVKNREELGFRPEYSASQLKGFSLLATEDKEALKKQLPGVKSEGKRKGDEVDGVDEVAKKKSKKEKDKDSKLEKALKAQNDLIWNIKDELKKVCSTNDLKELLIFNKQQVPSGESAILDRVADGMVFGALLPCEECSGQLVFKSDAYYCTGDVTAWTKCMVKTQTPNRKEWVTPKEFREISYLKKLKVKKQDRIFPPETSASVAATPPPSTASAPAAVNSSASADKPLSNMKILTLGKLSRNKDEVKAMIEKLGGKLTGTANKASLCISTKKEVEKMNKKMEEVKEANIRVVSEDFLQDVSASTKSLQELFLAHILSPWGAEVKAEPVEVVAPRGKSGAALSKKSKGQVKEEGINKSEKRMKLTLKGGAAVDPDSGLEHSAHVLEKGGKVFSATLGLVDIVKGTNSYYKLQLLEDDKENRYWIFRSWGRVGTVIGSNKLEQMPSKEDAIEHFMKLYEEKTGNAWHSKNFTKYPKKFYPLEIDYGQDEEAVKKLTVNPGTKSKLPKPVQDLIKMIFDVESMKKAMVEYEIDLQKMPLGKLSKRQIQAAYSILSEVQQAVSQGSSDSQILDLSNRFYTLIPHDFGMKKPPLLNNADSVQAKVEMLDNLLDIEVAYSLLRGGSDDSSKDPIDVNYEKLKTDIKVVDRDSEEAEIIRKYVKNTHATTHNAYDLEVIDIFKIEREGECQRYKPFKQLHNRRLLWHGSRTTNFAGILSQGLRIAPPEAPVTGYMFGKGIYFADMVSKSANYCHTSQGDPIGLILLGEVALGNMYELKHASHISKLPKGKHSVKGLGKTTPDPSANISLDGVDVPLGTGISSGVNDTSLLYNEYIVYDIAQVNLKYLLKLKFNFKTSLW
Chain of Caspase-2 (P42575 170-325 limits assumed): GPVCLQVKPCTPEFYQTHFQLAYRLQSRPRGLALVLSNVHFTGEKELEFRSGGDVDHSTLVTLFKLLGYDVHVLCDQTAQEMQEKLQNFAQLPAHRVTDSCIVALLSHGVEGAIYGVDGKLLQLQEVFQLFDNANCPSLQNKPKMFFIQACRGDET
Chain of Caspase-2 (P42575 334-452 limits assumed): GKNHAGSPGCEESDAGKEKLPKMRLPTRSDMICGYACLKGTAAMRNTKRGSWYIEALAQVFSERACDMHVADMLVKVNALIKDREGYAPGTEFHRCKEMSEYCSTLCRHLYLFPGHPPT
Chain of Ubiquitin carboxyl-terminal hydrolase 30 (Q70CQ3 whole entry): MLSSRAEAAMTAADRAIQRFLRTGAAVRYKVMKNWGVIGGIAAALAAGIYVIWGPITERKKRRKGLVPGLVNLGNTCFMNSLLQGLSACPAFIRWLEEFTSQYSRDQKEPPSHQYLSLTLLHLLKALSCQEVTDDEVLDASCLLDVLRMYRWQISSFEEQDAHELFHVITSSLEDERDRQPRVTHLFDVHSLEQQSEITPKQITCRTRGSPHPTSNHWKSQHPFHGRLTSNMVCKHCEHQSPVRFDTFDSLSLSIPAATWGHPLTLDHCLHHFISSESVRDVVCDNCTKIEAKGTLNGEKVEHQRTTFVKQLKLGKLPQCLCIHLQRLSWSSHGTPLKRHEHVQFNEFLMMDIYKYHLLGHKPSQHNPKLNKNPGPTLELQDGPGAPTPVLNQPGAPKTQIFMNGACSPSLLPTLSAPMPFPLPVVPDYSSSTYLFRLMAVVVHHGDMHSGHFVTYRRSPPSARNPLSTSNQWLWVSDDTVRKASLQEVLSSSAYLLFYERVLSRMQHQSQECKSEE

For `CC(F)(F)C(=O)N[C@@H](CC1(F)CCCC1)C(=O)NC1(C(=O)C(N)=O)CCC1`, the Ki (commonly the dissociation constant of the complex between target and ligand, obtained from inhibition or displacement) at Cathepsin S is 2.1 nM.
For the compound `COc1cc(O)cc(CN2CCc3c(cc(Cn4ccn(C)c4=N)cc3-c3ccc(F)cc3C)C2=O)c1`, the IC50 (as a rule, the concentration that gives 50% inhibition) in test [1] came to 2.2 nM. Moreover, the Kd (as a rule, the equilibrium constant for the complex coming apart) in [2] is less than 0.02 nM.
As for `N#Cc1ccc(-c2c3n(c4cccnc24)CCN(C2CC2)C3=O)cc1F` [PF-06445974], the IC50 in [3] was less than 1 nM.
Take `CC(C)N(C(=O)c1cc(F)ccc1Oc1cncnc1N1CC2(CCN(C[C@H]3CC[C@H](NS(C)(=O)=O)CC3)CC2)C1)C(C)C`: the affinity on Menin, expressed as Ki, was 0.104 nM.
Regarding `CCn1c(=S)[nH]c2cc3c(NCc4ccccc4N4CCC(CO)CC4)ncnc3cc21`, the IC50 in [4] amounted to 0.074 nM.
In test [5], `COc1ccc(-c2csc(N(C)C(=O)[C@@H]3CCCN3C#N)n2)nc1C#N` displayed an IC50 of less than 100 nM.
As for `CC(C)c1c(F)cccc1-c1ncc2[nH]c(=O)n(Cc3ccc(-c4nc(C(F)(F)F)cn4C)cc3)c2n1`, the IC50 in test [6] was less than 50 nM.
As to `C#CCNC(=O)[C@H](CO)NC(=O)[C@H](CCCCN(CC)CC)NC(=O)[C@@H](NC(=O)[C@@H](NC(=O)[C@H](Cc1ccc(O)c(Cl)c1)NC(=O)c1cc(Cl)cc(Cl)c1)C1CCCC1)[C@@H](C)CC` ({Benzoyl(3,5-Cl2)}-[Tyr(3-Cl)][Gly(cPent)]I[Lys(Et2)]S-{NH(propargyl)}), the figures for the Kd in test [7] and in [8] were 80 nM and 110 nM, respectively.
As to `CC[C@@H](/C=C/C(=O)N1CCc2ccccc21)NC(=O)C1(N)CCOCC1`, the IC50 at Dipeptidyl peptidase 1 is less than 0.43 nM.
Regarding `CCC1CCCCN1C(=O)n1ncc(C(O)(c2ccccc2)c2ccccc2)n1` (stereo not drawn), the IC50 in test [9] worked out at 15 nM.
In test [10], `Cc1cc(Cl)cc(-c2c3sc(CN4C(=O)C5C(C4=O)C5(C)C)cc3nn2C)c1OC1CCNCC1` (stereo not drawn) showed an IC50 of 13.4 nM.
`Cc1nnn(C)c1-c1cnc2c3cc4cnn(C)c4cc3n([C@H](c3ccccc3)C3CCOCC3)c2c1`: it took 2.7 nM to reach half-maximal inhibition in [11] (IC50).
In [12], `Cc1ccc2c(c1)nc(/C=C/c1cccc3cccnc13)n2-c1cccc(OCCCN2CCN(C)CC2)c1` yielded an IC50 of 2.8 nM.
As to `COC(=O)CC(NC(=O)C(C)NC(=O)C(NC(=O)C(CC(=O)OC)NC(=O)C(NC(=O)OCc1ccccc1)C(C)C)C(C)C)C(=O)CF` (stereo not drawn) (Cbz-VD(OMe)VAD(OMe)-CH2F; configuration not given here), the IC50 against Caspase-2 is roughly 80 nM.
Consider `O=C(c1cc(Cc2n[nH]c(=O)c3ccccc23)ccc1F)N1CC(CNC2CC2)C1`, for which the IC50 was determined as 1 nM in test [13] and 1.4 nM in test [14].
On to `Nc1cccc(Nc2ncc(-c3ccc(Cl)cc3)o2)c1`, for which the IC50 in [15] was determined as 325 nM.
For the compound `CC(=O)N[C@@H](CCCCNC(=O)CSCCNC(=O)CCNC(=O)[C@H](O)C(C)(C)COP(=O)(O)OP(=O)(O)OC[C@H]1O[C@@H](n2cnc3c(N)ncnc32)[C@H](O)[C@@H]1OP(=O)(O)O)C(N)=O`, the IC50 in test [16] was roughly 50 nM.
As for `CC[C@H](C)[C@H](NC(=O)[C@H](Cc1ccc(O)cc1)NC(=O)[C@@H](NC(=O)[C@H](CO)NC(=O)[C@H](CO)NC(=O)[C@H](CCSC)NC(=O)[C@@H]1CCCN1C(=O)[C@H](CC(=O)O)NC(C)=O)[C@@H](C)O)C(=O)N[C@@H](CCC(=O)O)C(=O)N[C@@H](CCC(=O)O)C(=O)N[C@@H](CC(C)C)C(=O)NCC(=O)N[C@@H](CCCCN)C(=O)N[C@@H](CCCNC(=N)N)C(=O)N[C@@H](CCC(=O)O)C(=O)N[C@H](C(=O)N[C@H](C(=O)N[C@H](C(=O)N1CCC[C@H]1C(=O)N1CCC[C@H]1C(=O)N[C@@H](CCCCN)C(=O)N[C@@H](Cc1ccc(O)cc1)C(=O)N[C@@H](CCCNC(=N)N)C(=O)N[C@@H](CCC(=O)O)C(=O)N[C@@H](CC(C)C)C(=O)N[C@@H](CC(C)C)C(=O)N[C@@H](C)C(N)=O)[C@@H](C)CC)[C@@H](C)O)C(C)C` (Ac-DPMSSTYIEELGKREVTIPPKYRELLA-NH2), the figures for the IC50 in test [17] and in test [18] were roughly 30 nM and roughly 60 nM, respectively. The Ki in test [19] stood at 0.2 nM.
